Assay results: patent US20250051327A1, “MALT-1 MODULATORS” (EXSCIENTIA AI LIMITED, priority 2020, published 2025)

What was measured:
[1] = system: IL-2 secretion by human effector memory T cells (TEM); test: Effector memory T cells IL-2 release assay; assay type: cell-based; conditions: T-cell; human CD4+ effector memory T cells, CD3/CD28 bead stimulation, 24 h; read-out: CD4TC IL2 IC50
In short: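 Human CD4+ effector memory T cells from healthy-donor buffy coats were stimulated with anti-CD3/CD28 Dynabeads and exposed to 10 semi-log compound doses (0.1% DMSO) for 24 h at 37 °C. Supernatant IL-2 was measured by HTRF, and IC50 came from a 4-parameter logistic fit to maximal IL-2. Viability was checked by flow cytometry.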

[2] = molecular target: Recombinant human MALT-1 (amino acids 340-824) (Homo sapiens (Human), UniProt Q9UDY8); test: MALT-1 inhibition assay (fluorogenic substrate Ac-LRSR-Rh110-DP); assay type: biochemical; conditions: recombinant human MALT-1, substrate Ac-LRSR-Rh110-DP
Chain of Recombinant human MALT-1 (amino acids 340-824) (Q9UDY8 340-824): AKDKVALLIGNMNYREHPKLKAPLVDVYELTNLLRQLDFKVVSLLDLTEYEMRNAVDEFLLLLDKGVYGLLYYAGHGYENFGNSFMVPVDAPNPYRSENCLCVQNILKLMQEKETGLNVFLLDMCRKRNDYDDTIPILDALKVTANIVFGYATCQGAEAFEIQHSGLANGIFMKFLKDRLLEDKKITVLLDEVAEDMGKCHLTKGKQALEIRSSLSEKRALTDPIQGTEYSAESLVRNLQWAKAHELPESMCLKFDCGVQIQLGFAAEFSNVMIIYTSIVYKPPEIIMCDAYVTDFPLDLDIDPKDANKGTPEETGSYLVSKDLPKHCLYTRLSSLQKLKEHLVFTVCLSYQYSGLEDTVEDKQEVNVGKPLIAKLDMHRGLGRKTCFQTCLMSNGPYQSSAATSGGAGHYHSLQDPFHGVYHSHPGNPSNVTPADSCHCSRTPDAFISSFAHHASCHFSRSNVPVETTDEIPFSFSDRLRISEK
In short: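 Reactions were started with fluorogenic substrate Ac-LRSR-Rh110-DP (10 μM final) against 3 nM enzyme and kept dark at 25° C for 60 minutes. IC50 values came from 4-parameter logistic fits of percent inhibition calculated from relative fluorescence units.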

| IC50 [1] | IC50 [2] | Structure (SMILES) |
| --- | --- | --- |
| 97 nM | 67 nM | COC[C@]1(C)CCN(c2ccc([C@H](N(C)C(=O)[C@H]3CC[S@@](=N)(=O)CC3)C(F)(F)F)cc2)c2cnc3cc(Cl)nn3c21 (relative stereo) [CPD0073131, (1rel-s,4rel-s)-N-[(1S)-1-[4-[(13rel-R)-4-chloro-13-(methoxymethyl)-13-methyl-2,3,7,10-tetrazatricyclo[7.4.0.0^2,6]trideca-1(9),3,5,7-tetraen-10-yl]phenyl]-2,2,2-trifluoro-ethyl]-1-imino-N-methyl-1-oxo-1λ^6-thiane-4-carboxamide] |
| 150 nM | 101 nM | COC[C@]1(C)CCN(c2ccc([C@H](N(C)C(=O)[C@H]3CC[S@](=N)(=O)CC3)C(F)(F)F)cc2)c2cnc3cc(Cl)nn3c21 (relative stereo) [CPD0073132, (1rel-r,4rel-r)-N-[(1S)-1-[4-[(13rel-R)-4-chloro-13-(methoxymethyl)-13-methyl-2,3,7,10-tetrazatricyclo[7.4.0.0^2,6]trideca-1(9),3,5,7-tetraen-10-yl]phenyl]-2,2,2-trifluoro-ethyl]-1-imino-N-methyl-1-oxo-1λ^6-thiane-4-carboxamide] |
| 64 nM | 81 nM | COC[C@@]1(C)CCN(c2ccc([C@H](N(C)C(=O)[C@H]3CC[S@@](=N)(=O)CC3)C(F)(F)F)cc2)c2cnc3cc(Cl)nn3c21 (relative stereo) [CPD0073133, (1rel-s,4rel-s)-N-[(1S)-1-[4-[(13rel-S)-4-chloro-13-(methoxymethyl)-13-methyl-2,3,7,10-tetrazatricyclo[7.4.0.0^2,6]trideca-1(9),3,5,7-tetraen-10-yl]phenyl]-2,2,2-trifluoro-ethyl]-1-imino-N-methyl-1-oxo-1λ^6-thiane-4-carboxamide] |
| 57 nM | 85 nM | COC[C@@]1(C)CCN(c2ccc([C@H](N(C)C(=O)[C@H]3CC[S@](=N)(=O)CC3)C(F)(F)F)cc2)c2cnc3cc(Cl)nn3c21 (relative stereo) [CPD0073134, (1rel-r,4rel-r)-N-[(1S)-1-[4-[(13rel-S)-4-chloro-13-(methoxymethyl)-13-methyl-2,3,7,10-tetrazatricyclo[7.4.0.0^2,6]trideca-1(9),3,5,7-tetraen-10-yl]phenyl]-2,2,2-trifluoro-ethyl]-1-imino-N-methyl-1-oxo-1λ^6-thiane-4-carboxamide] |
| 130 nM | 106 nM | COC[C@]1(C)CCN(c2ccc([C@H](N(C)C(=O)[C@H]3CC[S@@+]([O-])CC3)C(F)(F)F)cc2)c2cnc3cc(Cl)nn3c21 (relative stereo) [CPD0073135, (1rel-s,4rel-s)-N-[(1S)-1-[4-[(13rel-R)-4-chloro-13-(methoxymethyl)-13-methyl-2,3,7,10-tetrazatricyclo[7.4.0.0^2,6]trideca-1(9),3,5,7-tetraen-10-yl]phenyl]-2,2,2-trifluoro-ethyl]-N-methyl-1-oxo-1λ^4-thiane-4-carboxamide] |
| 63 nM | 138 nM | COC[C@]1(C)CCN(c2ccc([C@H](N(C)C(=O)[C@H]3CC[S@+]([O-])CC3)C(F)(F)F)cc2)c2cnc3cc(Cl)nn3c21 (relative stereo) [CPD0073136, (1rel-r,4rel-r)-N-[(1S)-1-[4-[(13rel-R)-4-chloro-13-(methoxymethyl)-13-methyl-2,3,7,10-tetrazatricyclo[7.4.0.0^2,6]trideca-1(9),3,5,7-tetraen-10-yl]phenyl]-2,2,2-trifluoro-ethyl]-N-methyl-1-oxo-1λ^4-thiane-4-carboxamide] |
| 45 nM | 90 nM | COC[C@@]1(C)CCN(c2ccc([C@H](N(C)C(=O)[C@H]3CC[S@@+]([O-])CC3)C(F)(F)F)cc2)c2cnc3cc(Cl)nn3c21 (relative stereo) [CPD0073137, (1rel-s,4rel-s)-N-[(1S)-1-[4-[(13rel-S)-4-chloro-13-(methoxymethyl)-13-methyl-2,3,7,10-tetrazatricyclo[7.4.0.0^2,6]trideca-1(9),3,5,7-tetraen-10-yl]phenyl]-2,2,2-trifluoro-ethyl]-N-methyl-1-oxo-1λ^4-thiane-4-carboxamide] |
| 55 nM | 79 nM | COC[C@@]1(C)CCN(c2ccc([C@H](N(C)C(=O)[C@H]3CC[S@+]([O-])CC3)C(F)(F)F)cc2)c2cnc3cc(Cl)nn3c21 (relative stereo) [CPD0073138, (1rel-r,4 rel-r)-N-[(1S)-1-[4-[(13 rel-S)-4-chloro-13-(methoxymethyl)-13-methyl-2,3,7,10-tetrazatricyclo[7.4.0.0^2,6]trideca-1(9),3,5,7-tetraen-10-yl]phenyl]-2,2,2-trifluoro-ethyl]-N-methyl-1-oxo-1λ^4-thiane-4-carboxamide] |
| 197 nM | 67 nM | CN1CC[C@H](C(=O)N(C)[C@@H](c2ccc(N3CCCc4c3cnc3cc(Cl)nn43)cc2)C(F)(F)F)CC1=O (relative stereo) [CPD0073141, (4rel-S)-N-[(1S)-1-(4-{4-chloro-2,3,7,10-tetraazatricyclo[7.4.0.0^2,6]trideca-1(9),3,5,7-tetraen-10-yl}phenyl)-2,2,2-trifluoroethyl]-N,1-dimethyl-2-oxopiperidine-4-carboxamide] |
| 122 nM | 68 nM | CN1CC[C@@H](C(=O)N(C)[C@@H](c2ccc(N3CCCc4c3cnc3cc(Cl)nn43)cc2)C(F)(F)F)CC1=O (relative stereo) [CPD0073142, (4rel-R)-N-[(1S)-1-(4-{4-chloro-2,3,7,10-tetraazatricyclo[7.4.0.0^2,6]trideca-1(9),3,5,7-tetraen-10-yl}phenyl)-2,2,2-trifluoroethyl]-N,1-dimethyl-2-oxopiperidine-4-carboxamide] |
| 107 nM | 68 nM | CN(C(=O)[C@H]1CCN(S(C)(=O)=O)C1)[C@@H](c1ccc(N2CCCc3c2cnc2cc(Cl)nn32)cc1)C(F)(F)F (relative stereo) [CPD0073143, (3rel-S)-N-[(1S)-1-(4-{4-chloro-2,3,7,10-tetraazatricyclo[7.4.0.0^2,6]trideca-1(9),3,5,7-tetraen-10-yl}phenyl)-2,2,2-trifluoroethyl]-1-methanesulfonyl-N-methylpyrrolidine-3-carboxamide] |
| 116 nM | 66 nM | CN(C(=O)[C@@H]1CCN(S(C)(=O)=O)C1)[C@@H](c1ccc(N2CCCc3c2cnc2cc(Cl)nn32)cc1)C(F)(F)F (relative stereo) [CPD0073144, (3rel-R)-N-[(1S)-1-(4-{4-chloro-2,3,7,10-tetraazatricyclo[7.4.0.0^2,6]trideca-1(9),3,5,7-tetraen-10-yl}phenyl)-2,2,2-trifluoroethyl]-1-methanesulfonyl-N-methylpyrrolidine-3-carboxamide] |
| 235 nM | 113 nM | CC(=O)N1CC[C@@H](C(=O)N(C)[C@@H](c2ccc(N3CCCc4c3cnc3cc(Cl)nn43)cc2)C(F)(F)F)C1 (relative stereo) [CPD0073188, (3rel-R)-1-acetyl-N-[(1S)-1-(4-{4-chloro-2,3,7,10-tetraazatricyclo[7.4.0.0^2,6]trideca-1(9),3,5,7-tetraen-10-yl}phenyl)-2,2,2-trifluoroethyl]-N-methylpyrrolidine-3-carboxamide] |
| 160 nM | 76 nM | CC(=O)N1CC[C@H](C(=O)N(C)[C@@H](c2ccc(N3CCCc4c3cnc3cc(Cl)nn43)cc2)C(F)(F)F)C1 (relative stereo) [CPD0073189, (3rel-S)-1-acetyl-N-[(1S)-1-(4-{4-chloro-2,3,7,10-tetraazatricyclo[7.4.0.0^2,6]trideca-1(9),3,5,7-tetraen-10-yl}phenyl)-2,2,2-trifluoroethyl]-N-methylpyrrolidine-3-carboxamide] |
| 80 nM | 25 nM | C[C@@H]1CCN(c2ccc([C@H](N(C)C(=O)[C@H]3CC[S@@](=N)(=O)CC3)C(F)(F)F)cc2)c2cnc3cc(Cl)nn3c21 (relative stereo) [CPD0073192, (1rel-s,4rel-s)-N-[(1S)-1-{4-[(13rel-R)-4-chloro-13-methyl-2,3,7,10-tetraazatricyclo[7.4.0.0^2,6]trideca-1(9),3,5,7-tetraen-10-yl]phenyl}-2,2,2-trifluoroethyl]-1-imino-N-methyl-1-oxo-1λ^6-thiane-4-carboxamide] |
| 68 nM | 22 nM | C[C@@H]1CCN(c2ccc([C@H](N(C)C(=O)[C@H]3CC[S@](=N)(=O)CC3)C(F)(F)F)cc2)c2cnc3cc(Cl)nn3c21 (relative stereo) [CPD0073193, (1rel-r,4rel-r)-N-[(1S)-1-{4-[(13rel-R)-4-chloro-13-methyl-2,3,7,10-tetraazatricyclo[7.4.0.0^2,6]trideca-1(9),3,5,7-tetraen-10-yl]phenyl}-2,2,2-trifluoroethyl]-1-imino-N-methyl-1-oxo-1λ^6-thiane-4-carboxamide] |
| 51 nM | 20 nM | C[C@H]1CCN(c2ccc([C@H](N(C)C(=O)[C@H]3CC[S@@](=N)(=O)CC3)C(F)(F)F)cc2)c2cnc3cc(Cl)nn3c21 (relative stereo) [CPD0073194, (1rel-s,4rel-s)-N-[(1S)-1-{4-[(13rel-S)-4-chloro-13-methyl-2,3,7,10-tetraazatricyclo[7.4.0.0^2,6]trideca-1(9),3,5,7-tetraen-10-yl]phenyl}-2,2,2-trifluoroethyl]-1-imino-N-methyl-1-oxo-1λ^6-thiane-4-carboxamide] |
| 51 nM | 22 nM | C[C@H]1CCN(c2ccc([C@H](N(C)C(=O)[C@H]3CC[S@](=N)(=O)CC3)C(F)(F)F)cc2)c2cnc3cc(Cl)nn3c21 (relative stereo) [CPD0073195, (1rel-R,4rel-R)-N-[(1S)-1-{4-[(13rel-S)-4-chloro-13-methyl-2,3,7,10-tetraazatricyclo[7.4.0.0^2,6]trideca-1(9),3,5,7-tetraen-10-yl]phenyl}-2,2,2-trifluoroethyl]-1-imino-N-methyl-1-oxo-1λ^6-thiane-4-carboxamide] |
